Results from article PMC8777613, “Effect of Hydroxyl Groups Esterification with Fatty Acids on the Cytotoxicity and Antioxidant Activity of Flavones” (Molecules, 2022).

Experiments:
[1] = system: human prostate cancer cells (PC3); assay: MTT dye reduction viability test, PC3; assay type: cell-based; details: for IC50 / viability at 10 µM / viability at 20 µM / viability at 40 µM / viability at 60 µM / viability at 80 µM / viability at 100 µM: Homo sapiens; for IC50: 72 h exposure, MTT, mean ± SD, read-out: Cytotoxic activity IC50, PC3; for viability at 10 µM: PC3, 10 µM; for viability at 10 µM / viability at 20 µM / viability at 40 µM / viability at 60 µM / viability at 80 µM / viability at 100 µM: representative MTT result (Table S1 A); for viability at 20 µM: PC3, 20 µM; for viability at 40 µM: PC3, 40 µM; for viability at 60 µM: PC3, 60 µM; for viability at 80 µM: PC3, 80 µM; for viability at 100 µM: PC3, 100 µM, read-out: Cells viability
Description: (§1) We have chosen two types of cell culture lines: human prostate cancer cells (PC3) and normal human immortal keratinocyte cells (HaCaT) (Table 1).
(§2) Human prostate cancer cells (PC3) and human immortal keratinocyte cell line from adult human skin (HaCaT) were obtained from American Type Culture Collection (Teddington, UK) and cultured according to its instructions RPMI 1640 (L0490) medium or DMEM (L0102) medium, respectively, in a 95% air and 5% CO2 humidified incubator at 37 °C. Both media (Biowest) were supplemented with 10% fetal bovine serum (FBS), 100 U/mL penicillin and 100 μg/mL streptomycin. 10 mM stock solutions of tested compounds in DMSO were prepared.
(§3) To assess the cells growth inhibition, the MTT dye reduction test was preformed based on the method described by Präbst et al.. Both PC3 and HaCaT cells (1 × 10^3/well) were seeded into 96-well plates and incubated for 24 h to attach to the bottom of the well in appropriate medium (200 μL) and treated with tested compounds (0–100 μM). The medium with compounds was removed after 72 h and MTT (0.5 mg/mL) in fresh growth medium without serum was added to each well. The plates were incubated in dark for 4 h at 37 °C. Then, the solution in each well was removed and refilled with 100 μL DMSO: isopropanol (1:1) to dissolve formazon crystals. The optical density was measured with an UVM 340 (ASYS Hitech GmbH, Austria) microplate reader at 570 nm. Replicates of three wells for each dosage, including vehicle control, were analyzed for each experiment. The experiments were conducted in triplicate. The results are expressed as IC50 values. The value of IC50 was estimated using CompuSyn version 1.0.

[2] = system: human immortal keratinocyte cells (HaCaT); assay: MTT dye reduction viability test, HaCaT; assay type: cell-based; details: for IC50: 72 h exposure, MTT, mean ± SD, read-out: Cytotoxic activity IC50, HaCaT
Description: as §1, §2, §3

[3] = MTT dye reduction viability test, HaCaT; assay type: cell-based, human; details: human; for IC50 at 72 h / viability at 72 h, 10 µM / viability at 72 h, 20 µM / viability at 72 h, 40 µM / viability at 72 h, 60 µM / viability at 72 h, 80 µM / viability at 72 h, 100 µM: HaCaT cells (immortal keratinocytes)
Description: as §1, §2, §3

rat brain homogenate = assay: Lipid peroxidation (MDA/TBA) induced by FeCl2 and ascorbic acid; assay type: biochemical; details: 10 µM compound; for MDA concentration: oxidation by 0.1% FeCl2 and 1 mM ascorbic acid, 1 h 37 °C, control 9.644 ± 1.570
Description: The antioxidant potential of the new flavone derivatives was assessed based on the analysis of malondialdehyde concentration formed as a product of lipid oxidation stimulated by iron (II) ions.
After preparation, the brain was placed on an ice plate and washed with cold 0.9% NaCl. 10% (m/v) brain solution was obtained by homogenization in cold 10 mM TRIS-HCl buffer, pH = 7.5. The homogenate was centrifuged (2000 rpm, 10 min, 4 °C) to obtain supernatant 1 (S1).
100 µM stock solutions of test compounds in DMSO were prepared. The test compound solution was added to a […] S1 homogenate to a final concentration of 10 µM.
The oxidation reaction was induced by adding to the samples with or without the test compounds freshly prepared solutions: 0.1% FeCl2 (0.2 mL) and 1 mM ascorbic acid (0.4 mL). After incubation for 1 h at 37 °C, the reaction was stopped by adding 8.1% sodium dodecyl sulfate (SDS) solution. In order to determine the concentration of MDA, the acetic acid/HCl buffer at pH = 3.4 and 120 μL of 0.8% thiobarbituric acid (TBA) solution at pH = 6 were added to the samples. The samples were incubated for 1 h at 100 °C. After incubation, the samples were cooled on ice and centrifuged for 10 min at 4000 RPM. The absorbance was measured at a wavelength of 532 nm. Blank content: 0.5 mL of acetate buffer + 0.5 mL of TBA solution.
Calculation of malondialdehyde (MDA) concentration (Equation (1)):(1) MDA concentration=∆ A532 nm × 1.56 ×10^−6 [nmol MDA/h/g tissue]

[4] = 72 h exposure, MTT, mean ± SD, read-out: Cytotoxic activity IC50, HaCaT
[5] = HaCaT, 10 µM, 72 h, representative MTT result (Table S1 B)
[6] = HaCaT, 20 µM, 72 h, representative MTT result (Table S1 B)
[7] = HaCaT, 40 µM, 72 h, representative MTT result (Table S1 B)
[8] = HaCaT, 60 µM, 72 h, representative MTT result (Table S1 B)
[9] = HaCaT, 80 µM, 72 h, representative MTT result (Table S1 B)
[10] = HaCaT, 100 µM, 72 h, representative MTT result (Table S1 B), read-out: Cells viability

| Structure (SMILES) | IC50 [1] [µM] | viability at 10 µM ([1]; 72 h) [%] | viability at 20 µM ([1]; 72 h) [%] | viability at 40 µM ([1]; 72 h) [%] | viability at 60 µM ([1]; 72 h) [%] | viability at 80 µM ([1]; 72 h) [%] | viability at 100 µM ([1]; 72 h) [%] | IC50 [2] [µM] | IC50 at 72 h [3, 4] [µM] | viability at 72 h, 10 µM [3, 5] [%] | viability at 72 h, 20 µM [3, 6] [%] | viability at 72 h, 40 µM [3, 7] [%] | viability at 72 h, 60 µM [3, 8] [%] | viability at 72 h, 80 µM [3, 9] [%] | viability at 72 h, 100 µM [3, 10] [%] | MDA concentration (rat brain homogenate) [mM × 10^−3] | melting point [°C] | other results |
| --- | --- | --- | --- | --- | --- | --- | --- | --- | --- | --- | --- | --- | --- | --- | --- | --- | --- | --- |
| CCC=CCC=CCC=CCCCCCCCC(=O)Oc1ccc2c(c1)C(=O)CC(c1ccccc1)O2 (stereo not drawn) [6-Linolenic-Flavanone, 6-hydroxy-flavanone linolenic ester] | 51.4 ± 2.8 | 92.5 | 85.9 | 79.5 | 48 | 35.8 | 31.5 | 44.6 ± 5.89 | 80 ± 4.75 | 95.8 | 75.2 | 53.3 | 38.1 | 25.8 | 23.8 |  |  |  |
| CCCCCCCCC=CCCCCCCCC(=O)Oc1ccc2c(c1)C(=O)CC(c1ccccc1)O2 (stereo not drawn) [6-Oleic-Flavanone, 6-hydroxy-flavanone oleic ester] | 38.1 ± 3.24 | 100 | 70.9 | 41.4 | 19.3 | 13.3 | 6.81 | 53.3 ± 6.87 | 53.3 ± 6.87 | 97.8 | 70 | 75.7 | 26.4 | 26.5 | 26.5 | 8.326 ± 0.490 | 46.2 to 47.1 |  |
| CCCCCCCCCCCCCCCCCC(=O)Oc1ccc2c(c1)C(=O)CC(c1ccccc1)O2 (stereo not drawn) [6-Stearic-Flavanone, 6-hydroxy-flavanone stearic ester] | > 100 | 96.5 | 106 | 99.6 | 93.9 | 93.6 | 93.7 | 40.6 ± 4.21 | 40.6 ± 4.21 | 95.4 | 82.5 | 54.7 | 47.8 | 32.5 | 11.7 | 7.875 ± 0.343 |  | cytotoxic potential in PC3 cells (in words) ([1]; PC3, 0–100 μM, 72 h): no cytotoxic potential |
| O=c1cc(-c2ccccc2)oc2cc(O)ccc12 [7-Hydroxy-Flavone, 7-hydroxy-flavone, reference compound] | > 100 | 123 | 117 | 111 | 95.4 | 65 | 62.7 |  |  |  |  |  |  |  |  | 7.702 ± 1.080 |  | reduction of PC3 cells viability compared to control cells ([1]; PC3, 72 h, concentration not given): 38%; reduction of the level of MDA compared to the control sample (rat brain homogenate; rat brain homogenate): 20.14%; cytotoxic activity towards HaCaT cells (in words) ([2]; HaCaT, 0–100 μM, 72 h): did not exhibit cytotoxic activity; IC50 [3, 4]: > 100 µM; viability at 10 µM ([3]; HaCaT, 10 µM, 72 h, representative MTT result (Table S1 B), read-out: Cells viability): 93.8%; viability at 20 µM ([3]; HaCaT, 20 µM, 72 h, representative MTT result (Table S1 B), read-out: Cells viability): 65.8%; viability at 40 µM ([3]; HaCaT, 40 µM, 72 h, representative MTT result (Table S1 B), read-out: Cells viability): 69.7%; viability at 60 µM ([3]; HaCaT, 60 µM, 72 h, representative MTT result (Table S1 B), read-out: Cells viability): 96.2%; viability at 80 µM ([3]; HaCaT, 80 µM, 72 h, representative MTT result (Table S1 B), read-out: Cells viability): 97.2%; viability at 100 µM [3, 10]: 92.4% |
| CC=CC=CC(=O)Oc1ccc2c(=O)cc(-c3ccccc3)oc2c1 [7-Sorbic-Flavone, 7-hydroxy-flavone sorbic ester] | 94.3 ± 4.24 | 84 | 80.9 | 93.6 | 74.5 | 69.6 | 75.2 |  | 50.8 ± 2.48 | 97.5 | 87.2 | 80.1 | 41 | 57.4 | 43.7 | 8.361 ± 0.050 | 137.8 to 139.7 |  |
| CCCCCCCCCCCCCCCCCC(=O)Oc1ccc2c(=O)cc(-c3ccccc3)oc2c1 [7-Stearic-Flavone, 7-hydroxy-flavone stearic ester] | 33.2 ± 4.81 | 100 | 87.7 | 41.8 | 32.2 | 47.9 | 27.5 |  | 45.6 ± 7.2 | 95.8 | 65.3 | 59.1 | 39.8 | 35.7 | 20.7 | 8.151 ± 0.343 | 84.5 to 85.7 |  |
